This is an account of results in paper PMC6912754, “Identification of A Novel Class of Benzofuran Oxoacetic Acid-Derived Ligands that Selectively Activate Cellular EPAC1” (Cells, 2019).

T1 sequence (Q8WZA2 whole entry): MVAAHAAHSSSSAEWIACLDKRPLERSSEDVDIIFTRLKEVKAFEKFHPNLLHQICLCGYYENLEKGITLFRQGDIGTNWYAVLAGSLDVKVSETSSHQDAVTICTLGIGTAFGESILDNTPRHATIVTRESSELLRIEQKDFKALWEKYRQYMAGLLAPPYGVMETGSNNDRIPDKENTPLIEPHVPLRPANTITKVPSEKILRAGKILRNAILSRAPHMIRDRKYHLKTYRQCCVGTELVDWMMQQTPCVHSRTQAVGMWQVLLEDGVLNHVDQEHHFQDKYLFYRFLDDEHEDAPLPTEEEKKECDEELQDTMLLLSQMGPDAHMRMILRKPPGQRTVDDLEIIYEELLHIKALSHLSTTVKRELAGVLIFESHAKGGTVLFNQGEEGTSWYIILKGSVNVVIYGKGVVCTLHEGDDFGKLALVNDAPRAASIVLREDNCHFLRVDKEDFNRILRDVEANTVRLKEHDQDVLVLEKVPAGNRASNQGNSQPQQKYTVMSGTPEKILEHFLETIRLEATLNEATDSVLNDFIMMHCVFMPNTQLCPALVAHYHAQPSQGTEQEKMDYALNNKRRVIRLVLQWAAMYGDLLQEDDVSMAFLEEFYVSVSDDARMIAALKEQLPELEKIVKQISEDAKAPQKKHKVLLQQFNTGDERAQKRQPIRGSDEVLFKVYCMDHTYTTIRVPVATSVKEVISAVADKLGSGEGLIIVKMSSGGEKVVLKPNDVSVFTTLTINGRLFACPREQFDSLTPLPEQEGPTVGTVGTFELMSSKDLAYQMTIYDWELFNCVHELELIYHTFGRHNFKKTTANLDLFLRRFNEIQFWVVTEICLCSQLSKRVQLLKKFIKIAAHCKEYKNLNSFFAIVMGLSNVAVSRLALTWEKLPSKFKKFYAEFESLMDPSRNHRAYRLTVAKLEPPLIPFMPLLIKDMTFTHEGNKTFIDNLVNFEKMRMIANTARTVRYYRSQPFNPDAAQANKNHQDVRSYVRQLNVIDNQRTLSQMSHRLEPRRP

This experiment concerns the target T1, EPAC2-CNBD (Homo sapiens, UniProt Q8WZA2).
T1 construct: gene RAPGEF4
Kind of experiment: biochemical. Also noted: 8-NBD-cAMP competition binding to GST-CNBD, fluorescence intensity 480/535 nm, dose response. The note with it: 8-NBD-cAMP displacement, mean; read-out: Pharmacology assay data / EPAC2 pIC50 (mean) (converted). The protocol:
8-(2-[7-nitro-4-benzofurazanyl] aminoethylthio) adenosine-3′,5′-cyclic monophosphate (8-NBD-cAMP) competition assays were performed with purified EPAC1-CNBD and EPAC2-CNBD GST-fusion proteins as previously described. Comparison of reference molecules, dose response curves (DRC) and pilot screens were done in black, low volume 384 assay plates (Greiner). Plates were incubated for 4 h before 8-NBD-cAMP fluorescence intensity at 480/535 nm (ex/em) was measured using the Envision multi-label plate reader (Perkin-Elmer; Waltham, MA, USA). EPAC1-CNBD (amino acids 169–318 of EPAC1) and EPAC2-CNBD (amino acids 304-453) cDNAs were previously sub-cloned into the multi-cloning site of the pGEX-6P-1 expression vector (GE Healthcare) by BC Bioscienes (Dundee, Scotland). Ral-GDS-RBD (amino acids 788-884) was cloned into pGEX-5X-1 as described. Recombinant EPAC1-CNBD, EPAC2-CNBD, EPAC1 (amino acids 149–881), Ral-GDS-RBD (amino acids 788-884), and Rap1B (amino acids 1–167) glutathione S-transferase (GST)-fusion proteins were then expressed and purified from BL-21 Escherichia coli, as previously described. Protein concentrations were determined by the bicinchoninic acid (BCA) assay or by Nanodrop 2000/2000c (Thermo Scientific). All recombinant proteins were determined to be pure by SDS-PAGE analysis. Proteins were stored in aliquots at −80 °C until required. Preliminary SAR on a benzofuran oxo-acetic acid series, based on SY000, was done using 8NBD-cAMP binding to EPAC1 and EPAC2 CNBDs, as summarized in the Supplementary Table, Supplementary Figures and Figure 4. […] Further alternatives to the R1 group (Figure S2), including reducing the linker length by a single [compound left out] […] In addition, N-methylation of the amide portion (ESC100960) also results in loss of activity. This could indicate a role for the NH as a hydrogen bond donor or that the substitution could adversely affect the conformation of the adjacent oxo-acetic acid group.
Regarding `Cc1ccc(C(=O)c2oc3ccc(CNC(=O)C(=O)O)cc3c2C)cc1` [SY000], the IC50 is 7.94 µM.

For `Cc1ccc(C(=O)c2oc3ccc(CNC(=O)C(=O)O)cc3c2C(C)(C)C)cc1` [SY006], the IC50 was 22.4 µM.

In the case of `Cc1c(C(=O)c2cccc(Br)c2)oc2ccc(CNC(=O)C(=O)O)cc12` [ESC1000906], the IC50 was 7.94 µM.

Turning to `Cc1ccc(C(=O)c2oc3ccc(CNC(=O)C(=O)O)cc3c2C(C)C)cc1` [SY009], the IC50 was 31.6 µM.

Take `CCc1c(C(=O)c2ccc(C)cc2)oc2ccc(CNC(=O)C(=O)O)cc12` [SY007]: the IC50 is 5.01 µM.
